Results as given in ChEMBL document CHEMBL5352426, “Synthesis and anti-tumor activity of nitrogen-containing derivatives of the natural product diphyllin” (Eur J Med Chem, 2022).
Active and inactive are the calls of the source. The calls are words filed in the database; no cut-off is given here.

Experiments:
MIA PaCa-2 [1] = experiment: Antiproliferative activity against human MIA PaCa-2 cells assessed as inhibition of cell proliferation at 1 uM incubated for 72 hrs by SRB assay relative to control; assay type: functional
Panc02 [2] = experiment: Antiproliferative activity against mouse Panc02 cells assessed as inhibition of cell proliferation at 1 uM incubated for 72 hrs by SRB assay relative to control; assay type: functional
PaTu 8988t [3] = experiment: Antiproliferative activity against human PaTu 8988t cells assessed as inhibition of cell proliferation at 1 uM incubated for 72 hrs by SRB assay relative to control; assay type: functional
[4] = Antiproliferative activity against human L02 cells assessed as inhibition of cell proliferation at 1 uM incubated for 72 hrs by SRB assay relative to control; assay type: toxicity, cell-based
CFPAC-1 [5] = experiment: Antiproliferative activity against human CFPAC-1 cells assessed as inhibition of cell proliferation at 1 uM incubated for 72 hrs by SRB assay relative to control; assay type: functional
[6] = Metabolic stability in mouse liver microsome assessed as half life; assay type: ADME; settings: liver microsomes
[7] = Metabolic stability in human liver microsome assessed as half life; assay type: ADME; settings: liver microsomes
[8] = Metabolic stability in mouse liver microsome assessed as intrinsic clearance; assay type: ADME; settings: liver microsomes, read-out: CLH
MIA PaCa-2 [9] = experiment: Antiproliferative activity against human MIA PaCa-2 cells assessed as inhibition of cell proliferation incubated for 72 hrs by SRB assay; assay type: functional, cell-based; settings: MIA PaCa-2, 72 h
[10] = Metabolic stability in human liver microsome assessed as hepatic clearance; assay type: ADME; settings: microsomes
[11] = Metabolic stability in mouse liver microsome assessed as hepatic clearance; assay type: ADME; settings: microsomes
[12] = Metabolic stability in human liver microsome assessed as intrinsic clearance; assay type: ADME; settings: liver microsomes, read-out: CLH
PaTu 8988t [13] = experiment: Antiproliferative activity against human PaTu 8988t cells assessed as inhibition of cell proliferation incubated for 72 hrs by SRB assay; assay type: functional, cell-based
Panc02 [14] = experiment: Antiproliferative activity against mouse Panc02 cells assessed as inhibition of cell proliferation incubated for 72 hrs by SRB assay; assay type: functional, cell-based; settings: Panc02, 72 h
[15] = Antiproliferative activity against human L02 cells assessed as inhibition of cell proliferation incubated for 72 hrs by SRB assay; assay type: toxicity, cell-based
CFPAC-1 [16] = experiment: Antiproliferative activity against human CFPAC-1 cells assessed as inhibition of cell proliferation incubated for 72 hrs by SRB assay; assay type: functional, cell-based; settings: CFPAC-1, 72 h
CFPAC-1 [17] = experiment: Effect on beclin-1 level in human CFPAC-1 cells at 10 to 1000 nM incubated for 24 hrs by Western blot analysis; assay type: functional, cell-based; settings: dose 10-1000 nM
CFPAC-1 [18] = experiment: Inhibition of autophagy at later stage in human CFPAC-1 cells assessed as increase in LC3-II/LC3-I ratio at 10 to 1000 nM incubated for 24 hrs by Western blot analysis; assay type: functional, cell-based; settings: dose 10-1000 nM
CFPAC-1 [19] = experiment: Inhibition of autophagy at later stage in human CFPAC-1 cells assessed as increase in LC3-II/LC3-I ratio at 1 uM incubated for 24 hrs in presence of chloroquine by Western blot analysis; assay type: functional, cell-based
CFPAC-1 [20] = experiment: Downregulation of cyclin D1 expression level in human CFPAC-1 cells incubated for 24 hrs by Western blot analysis; assay type: functional, cell-based; settings: dose 10-1000 nM
CFPAC-1 [21] = experiment: Downregulation of CDK4 expression level in human CFPAC-1 cells incubated for 24 hrs by Western blot analysis; assay type: functional, cell-based; settings: dose 10-1000 nM

Compound	inhibition at 1 µM (MIA PaCa-2 [1]) [%]	inhibition at 1 µM (Panc02 [2]) [%]	inhibition at 1 µM (PaTu 8988t [3]) [%]	inhibition at 72 h, 1 µM [4] [%]	inhibition at 1 µM (CFPAC-1 [5]) [%]	other results
COc1cc2c(OCCOCc3cn([C@H]4O[C@@H](C)[C@H](O)[C@@H](O)[C@H]4O)nn3)c3c(c(-c4ccc5c(c4)OCO5)c2cc1OC)C(=O)OC3	0.16	46	0.9	1.57	53.9	
COc1cc2c(OCCCc3cn([C@H]4O[C@@H](C)[C@H](OC(C)=O)[C@@H](OC(C)=O)[C@H]4OC(C)=O)nn3)c3c(c(-c4ccc5c(c4)OCO5)c2cc1OC)C(=O)OC3	93.6	86.7	93.9	38.3	75.7	half-life [6]: < 5 min; half-life [7]: < 5 min; microsomal CLint [8]: > 277 µL/min/mg; IC50 (MIA PaCa-2 [9]): 40 nM; CLH [10]: > 19.4 mL/min/kg; CLH [11]: > 83.2 mL/min/kg; microsomal CLint [12]: > 277 µL/min/mg; IC50 (PaTu 8988t [13]): 24 nM; IC50 (Panc02 [14]): 12 nM; IC50 at 72 h [15]: 494 nM; IC50 (CFPAC-1 [16]): 7 nM
COc1cc2c(NC(=O)[C@@H](N)COC(C)=O)c3c(c(-c4ccc5c(c4)OCO5)c2cc1OC)C(=O)OC3	3.38	8.86	2.63	-0.71	11.6	
COc1cc2c(NC(=O)[C@H](C)N)c3c(c(-c4ccc5c(c4)OCO5)c2cc1OC)C(=O)OC3	0.64	25.3	-4.32	1.54	42.7	
COc1cc2c(OCc3cn([C@H]4O[C@@H](C)[C@H](O)[C@@H](O)[C@H]4O)nn3)c3c(c(-c4ccc5c(c4)OCO5)c2cc1OC)C(=O)OC3	0.95	8.85	-2.09	-1.75	14.9	
COC(=O)CNc1c2c(c(-c3ccc4c(c3)OCO4)c3cc(OC)c(OC)cc13)C(=O)OC2	10.2	42	85.2	10.8	48.4	
COc1cc2c(N)c3c(c(-c4ccc5c(c4)OCO5)c2cc1OC)C(=O)OC3						Activity (CFPAC-1 [17]): inactive; inhibition (CFPAC-1 [18]): Active; inhibition (CFPAC-1 [19]): Active; Activity (CFPAC-1 [20]): Dose-Dependent Effect; Activity (CFPAC-1 [21]): Dose-Dependent Effect
